Laboratory results taken from patent publication US20260174819A1, “COMPOSITIONS AND METHODS FOR OBTAINING HUMAN ALVEOLAR CELLS AND RELATED USES THEREOF” (The Regents of the University of Michigan, priority 2022, published 2026).

Key:
BTP organoids = experiment: BTP organoid differentiation, RT-qPCR of AT2 and BTP markers; format: cell-based, human; settings: 7 days
Method: Primary BTP organoid cultures from 15-18.5 weeks post conception lung tissue were established and maintained as previously reported^3,21,22. BTP organoids were maintained in maintenance media (described below) under 8 mg/mL Matrigel (Corning Cat #354234), fed every three days and passaged 1:3 every 7-10 days by needle sheering.
Differentiations were performed on BTP organoids at passage three by removing maintenance media consisting of: DMEM/F-12 (Corning, Cat #10-092-CV), 100 U/mL penicillin-streptomycin (Thermo Fisher, Cat #15140122), 1×B-27 supplement (Thermo Fisher, Cat #17504044), 1× N2 supplement (Thermo Fisher, Cat #17502048), 0.05% BSA (Sigma, Cat #A9647), 50 μg/mL L-ascorbic acid (Sigma,Cat #A4544), 0.4 μM 1-Thioglycerol (Sigma, Cat #M1753), 50 nM all-trans retinoic acid (Sigma, Cat #R2625), 10 ng/ml recombinant human FGF7 (R&D Systems, Cat #251-KG), and 3 μM CHIR99021 (APE×BIO, Cat #A3011) and replacing with differentiation media. For data in FIG. 3 multiple differentiation medias were tested, all of which consisted of maintenance media with the addition of 1 μM A-8301 and/or the addition of 100 ng/ml BMP4 and/or removal of all trans retinoic acid. B-27 supplement without vitamin A (Thermo Fisher, Cat #12587010) was used instead of full B-27 supplement in conditions in which all trans retinoic acid was removed. For data in all FIGS. 4, 6, 7, 10 differentiation media consisted of common components: DMEM/F12, 100 U/mL penicillin-streptomycin, 1×B-27 supplement without vitamin A, 1× N2 supplement, 0.05% BSA, 50 μg/mL L-ascorbic acid, 0.4 μM 1-Thioglycerol. 10 ng/ml recombinant human FGF7, and 3 μM CHIR99021. To make CK+AB differentiation media 1 μM A-8301 and 100 ng/mL BMP4 was added. To make CKDCI differentiation media 50 nM Dexamethasone (Sigma, Cat #D4902), […] 3-isobutyl-1-methylxanthine (Sigma, Cat #I5879) and […] 8-Bromoadensoine 3′,5′-cyclic monophosphate sodium salt (Sigma, Cat #B7880) was added. Differentiations were fed every three days and passaged at seven day intervals by needle sheering.
(§1) Organoids were dislodged from Matrigel using a P1000 tip, pelleted in a 1.5 mL tube and flash frozen by placing the tube in a small amount of liquid nitrogen with minimal residual media. RNA was isolated from frozen pellets using the MagMax-96 Total RNA Isolation kit (Thermo Fisher, Cat #AM1830) according to the manufacturer's recommendations. RNA quality and yield was determined on a Nanodrop 2000 spectrophotometer. Reverse Transcription was performed in triplicate for each biological replicate using the SuperScript VILO cDNA kit with 200 ng RNA per reaction. After Reverse Transcription, cDNA was diluted 1:2 with DNAse/RNAse free water and 1/40th of the final reaction was used for each RT-qPCR measurement. RT-qPCR measurements were performed using a Step One Plus Real-Time PCR System (Thermo Fisher, Cat #43765592 R) using QuantiTect SYBR Green qPCR Master Mix (Qiagen, Cat #204145) with primers at a concentration of 500 nM. Sequences for RT-qPCR primers used in this manuscript are in Table 2.
For RT-qPCR data arbitrary units (AUs) of gene expression was first calculated using the following equation: 2^(GAPDHCt-TargetCt)×10,000. For FIG. 12B, FIG. 5D, FIG. 7I, FIG. 9E, and FIG. 10H the AUs for each biological replicate were calculated from the mean of technical replicates and a ratio paired t-test was performed between the two conditions compared to determine statistical significance (p). […] For FIG. 3E AUs were normalized to AUs of expression in progenitor media for each biological replicate to obtain fold change. Repeated measures one-way ANOVA was performed with Dunnett's correction on linearized (log-transformed) fold change values comparing all experimental conditions to progenitor medium to determine p.

[1] = system: canalicular stage human lung ALI explants; experiment: Lung ALI explant culture, immunofluorescent staining; format: cell-based; settings: for SFTPA staining in ProSFTPC-positive cells: relative to untreated explants
Method: Human fetal lung within the canalicular stage of lung development was utilized for lung ALI explant cultures (specifically 15-18.5 weeks post conception). Small pieces (<0.5 cm diameter) were dissected from distal regions of the lung and placed on Nucleopore Track-Etched Membrane disks (13 mm, 8 μm pore, poly-carbonate) (Sigma, Cat #WHA110414) floating on top of 500 μl of human lung ALI explant media (Advanced DMEM/F-12 (Thermo Fisher, Cat #12634010), 2 mM Glutamax (Thermo Fisher, Cat #35050061), 15 mM HEPES (Corning, Cat #25060CI), 1× B27 Supplement (Thermo Fisher, Cat #17504044) 1×N-2 Supplement (Thermo Fisher, Cat #17502048), 100 U/mL penicillin-streptomycin (Thermo Fisher, Cat #15140122)) in a 24-well tissue culture plate (Thermo Fisher, Cat #12565163). Where indicated, 1 μM A-8301 (APE×BIO Cat #A3133), 100 ng/mL rhTGFβ1 (R&D Systems Cat #240-B-002), 100 ng/mL rhNOGGIN (produced in-house) or 100 ng/mL BMP4 (R&D Systems Cat #314-BP-050) was added to human lung ALI explant media.
All samples processed were fixed for 24 h in 10% Neutral Buffered Formalin at room temperature with gentle agitation. Samples were washed 3× with UltraPure DNase/RNase-free distilled water (Thermo Fisher, Cat #10977015) and dehydrated through an alcohol series consisting of 25%, 50%, 75% and 100% methanol, followed by 100% and 70% ethanol. For tissue and explants each step was performed for at least 1 h. For organoids each step was performed for at least 15 min. In the case of explants and organoids, specimens were embedded in Histogel (VWR Cat #83009-992) prior to paraffin processing. Samples were paraffin processed in an automated tissue processor through the following series: 70%, 80%, 2× 95%, 3× 100% ethanol, 3× xylene and 3× paraffin with 1 h for each step. Tissue was embedded into paraffin blocks and cut into 5 μm-thick sections onto charged glass slides using a microtome. Slides were baked for 1 h at 60° C. immediately prior to staining.
Slides were treated with 2× HistoClear II (National Diagnostics, Cat #HS-202) washes, then rehydrated through washes in 100%, 95%, 70%, 30% ethanol for 4 min each, with buffer exchanges performed halfway through washing. Then, slides were washed 2×5 min with ddH20. Antigen retrieval in 1× Sodium Citrate Buffer (100 mM trisodium citrate (Sigma, Cat #S1804), 0.5% Tween-20 (Thermo Fisher, Cat #BP337), pH 6.0) for 20 min at 99° C. After washing 3× in ddH20 slides were blocked for 1 h with blocking solution: 5% normal donkey serum (Sigma, Cat #D9663), 0.1% Tween-20 in PBS. Slides were then incubated in primary antibodies diluted in blocking solution in a humidified chamber at 4° C. overnight. Slides were washed 3× in 1×PBS for 10 min each. Slides were incubated with secondary antibodies and DAPI (1 μg/mL) diluted in blocking solution for 1 h, then were washed 3× in 1×PBS for 5 min each. Slides were mounted in ProLong Gold (Thermo Fisher, Cat #P369300) and imaged within 2 weeks. Primary and secondary antibodies used in this study are available in Table 1.

[2] = system: CK+AB induced AT2-like organoids; experiment: Expansion of AT2-like organoids in SFFF media (growth, RT-qPCR, IF, FACS); format: cell-based, human; settings: for MUC5AC expression (RT-qPCR) on removal of the component from SFFF / SFTPC expression (RT-qPCR) on removal of the component from SFFF: SFFF lacking the component vs SFFF
Method: After 21 days of differentiation in CK+AB or CK+DCI organoids were passaged and fed with SFFF or SFFF without FGF10 consisting of: Advanced DMEM/F12, 2 mM Glutamax, 1× B27 supplement, 100 U/mL penicillin-streptomycin, 15 mM HEPES, 0.05% BSA, 10 μM TGFβ inhibitor SB43152 (APExBIO, Cat #A8249), 1 μM p38 MAP kinase inhibitor BIRB796 (APExBIO, Cat #A5639), 3 μM CHIR99021, 50 ng/mL rhEGF (R&D Systems, Cat #236-EG) with (SFFF) or without the addition of 10 ng/mL FGF10 (produced in-house). Organoids were passaged every 7-14 days at a ratio of 1:6 by needle sheering^93.
as §1
Organoids were retrieved from Matrigel by mechanical dissociation with a P1000, washed 2× with 1 mL PBS and, resuspended with TrypLE and incubated at 37° C. until a single cell suspension was obtained with light pipetting (typically 10 min). Cells were washed 3× with 1 mL of FACS buffer consisting of PBS, 2% BSA and 10 μM Y-27632 (APE×BIO, Cat #3008) and then filtered through a […] mesh. Cells were stained for 1 h on ice in FACS buffer with a 1:60 dilution of anti HTII-280 IgM antibody. Cells were washed 3× with 1 mL of FACS buffer before 30 min of staining in FACS buffer with a 1:1000 dilution of anti-mouse IgM-Alexaflour-488 secondary antibody (Jackson Immunoresearch, Cat #715545140) on ice. After 3× washes with 1 mL of FACS buffer cells were suspended in FACS buffer with 1:4000 dilution of DAPI. […] All steps were carried out at 4° C. unless otherwise indicated. Cells were pelleted at 500×G for 5 min in swing bucket rotors. FACS was performed on either a Sony MA900 or the ThermoFisher Bigfoot Spectral Cell Sorter and analyzed in FlowJo v10.

[3] = CK+AB in absence vs presence of ATRA
[4] = added to bud tip progenitor media, vs progenitor media

CC1=C(/C=C/C(C)=C/C=C/C(C)=C/C(=O)O)C(C)(C)CCC1 [ATRA, all-trans retinoic acid]
SFTPB expression (RT-qPCR) on removal of ATRA (BTP organoids; [3]): reduced
SFTPC expression (RT-qPCR) on removal of ATRA (BTP organoids; [3]): significantly enhancing
SOX9 expression (RT-qPCR) on removal of ATRA (BTP organoids; [3]): reducing

TGFβ1: recombinant TGFβ1, activator of TGFβ-signaling, 100 ng/mL
TP63 expression in epithelial cells ([1]; ALI explants): most epithelial cells expressing TP63
ProSFTPC staining ([1]; day 6 ALI explants): reduced
SFTPA staining in ProSFTPC-positive cells ([1]; day 6 ALI explants): barely detectible

Cc1cccc(-c2nn(C(=S)Nc3ccccc3)cc2-c2ccnc3ccccc23)n1 [A-8301]
SFTPA staining in ProSFTPC-positive cells ([1]; day 6 ALI explants): increased
BTP marker SOX9 expression (RT-qPCR) (BTP organoids; [4]): Neither treatment alone significantly reduced
SFTPA1 expression (RT-qPCR) (BTP organoids; [4]): significantly increased
SFTPC expression (RT-qPCR) (BTP organoids; [4]): significantly increased

Cc1ccc(-n2nc(C(C)(C)C)cc2NC(=O)Nc2ccc(OCCN3CCOCC3)c3ccccc23)cc1 [BIRB797, reference compound]
MUC5AC expression (RT-qPCR) on removal of the component from SFFF [2]: increased
SFTPC expression (RT-qPCR) on removal of the component from SFFF [2]: improved expression

B1: NOGGIN: recombinant BMP inhibitor NOGGIN, 100 ng/mL, produced in-house (protein, UniProt Q13253 28-232, looked up)
Noggin: QHYLHIRPAPSDNLPLVDLIEHPDPIFDPKEKDLNETLLRSLLGGHYDPGFMATSPPEDRPGGGGGAAGGAEDLAELDQLLRQRPSGAMPSEIKGLEFSEGLAQGKKQRLSKKLRRKLQMWLWSQTFCPVLYAWNDLGSRFWPRYVKVGSCFSKRSCSVPEGMVCKPSKSVHLTVLRWRCQRRGGQRCGWIPIQYPIISECKCSC
phosphoSMAD1/5/8 staining ([1]; day 6 ALI explants, 100 ng/mL NOGGIN): blocked
SFTPA staining in ProSFTPC-positive cells ([1]; day 6 ALI explants): did not change

B2: BMP4: recombinant BMP4, BMP-activator, 100 ng/mL (R&D Systems) (protein, UniProt P12644 293-408, looked up)
Bone morphogenetic protein 4: SPKHHSQRARKKNKNCRRHSLYVDFSDVGWNDWIVAPPGYQAFYCHGDCPFPLADHLNSTNHAIVQTLVNSVNSSIPKACCVPTELSAISMLYLDEYDKVVLKNYQEMVVEGCGCR
SFTPA staining in ProSFTPC-positive cells ([1]; day 6 ALI explants): robust and readily detectable levels
BTP marker SOX9 expression (RT-qPCR) (BTP organoids; [4]): Neither treatment alone significantly reduced
HOPX expression (RT-qPCR) (BTP organoids; [4]): significantly increased
LAMP3 expression (RT-qPCR) (BTP organoids; [4]): significantly increased
SFTPA1 expression (RT-qPCR) (BTP organoids; [4]): significantly increased
SFTPB expression (RT-qPCR) (BTP organoids; [4]): significantly increased

B3: FGF10: recombinant human FGF10, 10 ng/mL, produced in-house, component of SFFF (protein, UniProt O15520 38-208, looked up)
Fibroblast growth factor 10: QALGQDMVSPEATNSSSSSFSSPSSAGRHVRSYNHLQGDVRWRKLFSFTKYFLKIEKNGKVSGTKKENCPYSILEITSVEIGVVAVKAINSNYYLAMNKKGKLYGSKEFNNDCKLKERIEENGYNTYASFNWQHNGRQMYVALNGKGAPRRGQKTRRKNTSAHFLPMVVHS
MUC5AC expression (RT-qPCR) on removal of the component from SFFF [2]: reduction of MUC5AC to near-zero levels
SFTPC expression (RT-qPCR) on removal of the component from SFFF [2]: improved expression
AT2 phenotype of CK+AB differentiated AT2-like cells ([2]; SFFF with vs without FGF10): repressed
